According to patent US20240228555A9, “ANTIMICROBIAL PEPTIDOMIMETICS” (Basilea Pharmaceutica International AG, Allschwil, priority 2020, published 2024):
Read-outs that look alike come from different tables or passages of the source. Where a SMILES comes first, the peptide text is derived from it. Where no end group is shown, it is not given here. [ ]: non-standard residue; d: D form. Hyp = O=C(O)[C@@H]1C[C@@H](O)CN1; Pen = CC(C)(S)[C@H](N)C(=O)O; dDab = NCC[C@@H](N)C(=O)O; Dab = NCC[C@H](N)C(=O)O

Experiments:
[1] = test system: human red blood cells (hRBC); type: cell-based
Outline: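 Percent lysis was derived from supernatant absorbance at 540 nm relative to full lysis by 2.5% Triton X-100 (PBS defines 0%). Compounds, 200 μg/mL, were exposed for 1 h at 37° C to a 20% (v/v) suspension of washed human red cells.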

[2] = test system: Escherichia coli ATCC 25922
Outline: (§1)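 First, bacterial colonies are suspended in saline and adjusted to 0.5 McFarland. Next, the suspension is diluted into cation-adjusted Mueller-Hinton II broth (approx. 5×10^5 CFU/mL). Finally, it is added to two-fold serially diluted peptide, with polysorbate 80 at 0.002% final.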

[3] = test system: Klebsiella pneumoniae SSI3010
Outline: as §1

[4] = test system: Escherichia coli MCR-1 Af 45; settings: Mueller-Hinton broth II, no visible growth after 18-20 hours at 35° C.
Outline: as §1

[5] = red cells of human, 1 h, 0.2 g/L
[6] = Mueller-Hinton broth II, no visible growth after 18-20 hours at 35° C.

Compound | Hemolysis at 0.2 g/L [1, 5] [%] | Escherichia coli ATCC 25922 MIC ([2]; ATCC 25922) [µg/mL] | Klebsiella pneumoniae SSI3010 MIC ([3]; SSI3010) [µg/mL] | Escherichia coli MCR-1 Af 45 MIC [4] [µg/mL] | Hemolysis at 0.2 g/L [1] [%] | Escherichia coli ATCC 25922 MIC [2, 6] [µg/mL] | Klebsiella pneumoniae SSI3010 MIC [3, 6] [µg/mL]
CC[C@H](C)[C@H](NC(=O)[C@@H](NC(=O)[C@@H]1C[C@@H](N)CN1C(=O)[C@@H](N)C(C)C)[C@@H](C)CC)C(=O)N[C@@H](Cc1ccc(O)cc1)C(=O)N[C@@H]1C(=O)N[C@@H](CC(N)=O)C(=O)N[C@@H](CCCNC(=N)N)C(=O)N[C@@H](CCN)C(=O)N[C@@H]([C@@H](C)O)C(=O)N[C@H](CCN)C(=O)N[C@@H](CCCCN)C(=O)N[C@H](C(=O)N[C@@H](CCN)C(=O)N[C@H](C(=O)N[C@@H](Cc2ccc(O)cc2)C(=O)O)[C@@H](C)O)CSSC1(C)C [Example 109, Val-Pro((4R)NH2)-Ile-Ile-Tyr-Pen-Asn-Arg-Dab-Thr-^DDab-Lys-Cys-Dab-Thr-Tyr] (HELM PEPTIDE1{V.[N[C@@H]1C[C@@H](C(=O)[*:2])N([*:1])C1].I.I.Y.[Pen].N.R.[Dab].T.[NCC[C@@H](N[*:1])C(=O)[*:2]].K.C.[Dab].T.Y}$PEPTIDE1,PEPTIDE1,6:R3-13:R3$$$V2.0) | <1 | 0.125 | 0.25 | 0.125 |  |  | 
CC[C@H](C)[C@H](NC(=O)[C@@H](NC(=O)[C@@H]1C[C@@H](O)CN1C(=O)[C@@H](N)C(C)C)[C@@H](C)CC)C(=O)N[C@@H](Cc1ccc(O)cc1)C(=O)N[C@@H]1C(=O)N[C@@H](CC(N)=O)C(=O)N[C@@H](CCCNC(=N)N)C(=O)N[C@@H](CCCCN)C(=O)N[C@@H]([C@@H](C)O)C(=O)N[C@H](CCN)C(=O)N[C@@H](CCCCN)C(=O)N[C@H](C(=O)N[C@@H](CCCCN)C(=O)N[C@@H](CCCNC(=N)N)C(=O)N[C@@H](Cc2ccc(O)cc2)C(=O)O)CSSC1(C)C [Example 82, Val-Hyp-Ile-Ile-Tyr-Pen-Asn-Arg-Lys-Thr-^DDab-Lys-Cys-Lys-Arg-Tyr] (HELM PEPTIDE1{V.[Hyp].I.I.Y.[Pen].N.R.K.T.[NCC[C@@H](N[*:1])C(=O)[*:2]].K.C.K.R.Y}$PEPTIDE1,PEPTIDE1,6:R3-13:R3$$$V2.0) | <1 | 0.125 | 0.25 | 0.125 |  |  | 
CC[C@H](C)[C@H](NC(=O)[C@@H](NC(=O)[C@@H]1C[C@@H](O)CN1C(=O)[C@@H](N)C(C)C)[C@@H](C)CC)C(=O)N[C@@H](Cc1ccc(O)cc1)C(=O)N[C@@H]1C(=O)N[C@@H](CC(N)=O)C(=O)N[C@@H](CCCNC(=N)N)C(=O)N[C@@H](CCN)C(=O)N[C@@H]([C@@H](C)O)C(=O)N[C@H](CCN)C(=O)N[C@@H]([C@@H](C)CC)C(=O)N[C@H](C(=O)N[C@@H](CCN)C(=O)N[C@@H](CCCNC(=N)N)C(=O)N[C@@H](Cc2ccc(O)cc2)C(=O)O)CSSC1(C)C [Example 87, Val-Hyp-Ile-Ile-Tyr-Pen-Asn-Arg-Dab-Thr-^DDab-Ile-Cys-Dab-Arg-Tyr] (HELM PEPTIDE1{V.[Hyp].I.I.Y.[Pen].N.R.[Dab].T.[NCC[C@@H](N[*:1])C(=O)[*:2]].I.C.[Dab].R.Y}$PEPTIDE1,PEPTIDE1,6:R3-13:R3$$$V2.0) | <1 | 0.125 | 0.25 | 0.125 |  |  | 
CC[C@H](N)C(=O)N1C[C@H](O)C[C@H]1C(=O)N[C@H](C(=O)N[C@H](C(=O)N[C@@H](Cc1ccc(O)cc1)C(=O)N[C@@H]1C(=O)N[C@@H](CC(N)=O)C(=O)N[C@@H](CCCNC(=N)N)C(=O)N[C@@H](CCN)C(=O)N[C@@H]([C@@H](C)O)C(=O)N[C@H](CCN)C(=O)N[C@@H](CCCCN)C(=O)N[C@H](C(=O)N[C@@H](CCN)C(=O)N[C@@H](CCCNC(=N)N)C(=O)N[C@@H](Cc2ccc(O)cc2)C(=O)O)CSSC1(C)C)[C@@H](C)CC)[C@@H](C)CC [Example 79, Abu-Hyp-Ile-Ile-Tyr-Pen-Asn-Arg-Dab-Thr-^DDab-Lys-Cys-Dab-Arg-Tyr] (HELM PEPTIDE1{[Abu].[Hyp].I.I.Y.[Pen].N.R.[Dab].T.[NCC[C@@H](N[*:1])C(=O)[*:2]].K.C.[Dab].R.Y}$PEPTIDE1,PEPTIDE1,6:R3-13:R3$$$V2.0) | <1 | 0.125 | 0.5 | 0.125 |  |  | 
CC[C@H](C)[C@H](NC(=O)[C@@H]1C[C@@H](N)CN1C(=O)[C@@H](N)C(C)C)C(=O)N[C@H](C(=O)N[C@@H](Cc1ccc(O)cc1)C(=O)N[C@@H]1C(=O)N[C@@H](CC(N)=O)C(=O)N[C@@H](CCCNC(=N)N)C(=O)N[C@@H](CCN)C(=O)N[C@@H]([C@@H](C)O)C(=O)N[C@H](CCN)C(=O)N[C@@H](CCCNC(N)=O)C(=O)N[C@H](C(=O)N[C@@H](CCN)C(=O)N[C@H](C(=O)N[C@@H](Cc2ccc(O)cc2)C(=O)O)[C@@H](C)O)CSSC1(C)C)[C@@H](C)O [Example 116, Val-Pro((4R)NH2)-Ile-Thr-Tyr-Pen-Asn-Arg-Dab-Thr-^DDab-Cit-Cys-Dab-Thr-Tyr] (HELM PEPTIDE1{V.[N[C@@H]1C[C@@H](C(=O)[*:2])N([*:1])C1].I.T.Y.[Pen].N.R.[Dab].T.[NCC[C@@H](N[*:1])C(=O)[*:2]].[Cit].C.[Dab].T.Y}$PEPTIDE1,PEPTIDE1,6:R3-13:R3$$$V2.0) | <1 | 0.25 | 0.5 | 0.25 |  |  | 
CC[C@H](C)[C@H](NC(=O)[C@@H]1C[C@@H](O)CN1C(=O)[C@@H](N)C(C)C)C(=O)N[C@H](C(=O)N[C@@H](Cc1ccc(O)cc1)C(=O)N[C@@H]1C(=O)N[C@@H](CC(N)=O)C(=O)N[C@@H](CCCNC(=N)N)C(=O)N[C@@H](CCN)C(=O)N[C@@H]([C@@H](C)O)C(=O)N[C@H](CCNC(C)C)C(=O)N[C@@H](CCCCN)C(=O)N[C@H](C(=O)N[C@@H](CCN)C(=O)N[C@@H](CCCNC(=N)N)C(=O)N[C@@H](Cc2ccc(O)cc2)C(=O)O)CSSC1(C)C)[C@@H](C)O [Example 138, Hyp-Ile-Thr-Tyr-Pen-Asn-Arg-Dab-Thr-^DDab(iPr)-Lys-Cys-Dab-Arg-Tyr] (HELM PEPTIDE1{V.[Hyp].I.T.Y.[Pen].N.R.[Dab].T.[CC(C)NCC[C@@H](N[*:1])C(=O)[*:2]].K.C.[Dab].R.Y}$PEPTIDE1,PEPTIDE1,6:R3-13:R3$$$V2.0) | <1 | 0.125 | 0.5 | 0.125 |  |  | 
V[Hyp]ITY[Pen]NR[Dab]T[dDab]NC[Dab]RY (cysteine pairing not given here) [Example 40] |  |  |  | 0.25 | 0 | 0.25 | 0.5
CC[C@H](C)[C@H](NC(=O)[C@@H](NC(=O)[C@@H]1C[C@@H](O)CN1C(=O)[C@@H](N)C(C)C)[C@@H](C)CC)C(=O)N[C@@H](Cc1ccc(O)cc1)C(=O)N[C@@H]1C(=O)N[C@@H](CC(N)=O)C(=O)N[C@@H](CCCNC(=N)N)C(=O)N[C@@H](CCN)C(=O)N[C@@H]([C@@H](C)O)C(=O)N[C@H](CCN)C(=O)N[C@@H](CO)C(=O)N[C@H](C(=O)N[C@@H](CCN)C(=O)N[C@@H](CCCNC(=N)N)C(=O)N[C@@H](Cc2ccc(O)cc2)C(=O)O)CSSC1(C)C [Example 101, Val-Hyp-Ile-Ile-Tyr-Pen-Asn-Arg-Dab-Thr-^DDab-Cys-Dab-Arg-Tyr] | <1 | 0.125 | 0.25 | 0.125 |  |  | 
CC[C@H](C)[C@H](NC(=O)[C@@H](NC(=O)[C@@H]1C[C@@H](N)CN1C(=O)[C@@H](N)C(C)C)[C@@H](C)CC)C(=O)N[C@@H](Cc1ccc(O)cc1)C(=O)N[C@@H]1C(=O)N[C@@H](CC(N)=O)C(=O)N[C@@H](CCCNC(=N)N)C(=O)N[C@@H](CCN)C(=O)N[C@@H]([C@@H](C)O)C(=O)N[C@H](CCN)C(=O)N[C@@H]([C@@H](C)CC)C(=O)N[C@H](C(=O)N[C@@H](CCN)C(=O)N[C@H](C(=O)N[C@@H](Cc2ccc(O)cc2)C(=O)O)[C@@H](C)O)CSSC1(C)C [Example 115, Val-Pro((4R)NH2)-Ile-Ile-Tyr-Pen-Asn-Arg-Dab-Thr-^DDab-Ile-Cys-Dab-Thr-Tyr] (HELM PEPTIDE1{V.[N[C@@H]1C[C@@H](C(=O)[*:2])N([*:1])C1].I.I.Y.[Pen].N.R.[Dab].T.[NCC[C@@H](N[*:1])C(=O)[*:2]].I.C.[Dab].T.Y}$PEPTIDE1,PEPTIDE1,6:R3-13:R3$$$V2.0) | <1 | 0.5 | 0.5 | 0.125 |  |  | 
CC[C@H](C)[C@H](NC(=O)[C@@H](NC(=O)[C@@H]1C[C@@H](O)CN1C(=O)[C@@H](N)C(C)C)[C@@H](C)CC)C(=O)N[C@@H](Cc1ccc(O)cc1)C(=O)N[C@@H]1C(=O)N[C@@H](CC(N)=O)C(=O)N[C@@H](CCCNC(=N)N)C(=O)N[C@@H](CCN)C(=O)N[C@@H](CO)C(=O)N[C@H](CCN)C(=O)N[C@@H](CCCCN)C(=O)N[C@H](C(=O)N[C@@H](CCN)C(=O)N[C@@H](CCN)C(=O)N[C@@H](Cc2ccc(O)cc2)C(=O)O)CSSC1(C)C [Example 76, Val-Hyp-Ile-Ile-Tyr-Pen-Asn-Arg-Dab-Ser-^DDab-Lys-Cys-Dab-Dab-Tyr] (HELM PEPTIDE1{V.[Hyp].I.I.Y.[Pen].N.R.[Dab].S.[NCC[C@@H](N[*:1])C(=O)[*:2]].K.C.[Dab].[Dab].Y}$PEPTIDE1,PEPTIDE1,6:R3-13:R3$$$V2.0) | <1 | 0.0625 | 0.25 | 0.0625 |  |  | 
